{"source": "patent US5659055A", "about": "“Cytoprotective fatty moiety compounds” (Virginia Commonwealth University, priority 1995, dated 1997)", "system": "PLA2 derived from plasma, sperm, platelets, human synovial fluid and N. naja cobra venom", "assay": "In vitro inhibition of PLA2 from a variety of sources (FIG. 8)", "type": "biochemical"}
{"smiles": "CCCCCCC(C/C=C\\CCCCCCCC(=O)O)OC(=O)CCCCCCCCC(=O)O", "note": "(stereo not shown) [RISE-1, Ricinoleic Acid--Sebacyl Ester]", "values": [{"measurement": "in vitro inhibition of PLA2 from different sources", "result": "dose related, selective in vitro inhibition"}]}
